Reference: ChEMBL document CHEMBL5512617, “Tackling Influenza A virus by M2 ion channel blockers: Latest progress and limitations” (Eur J Med Chem, 2024)

Legend:
Influenza A virus [1] = experiment: Antiviral activity against influenza A virus harboring wild type M2 ion channel infected in MDCK cells assessed as viral growth inhibition preincubated with cells for 30 mins followed by viral infection and measured after 72 hrs by CCK-8 assay; type: functional, organism-based
Influenza A virus [2] = type: functional, organism-based; settings: A/WSN/33, MDCK, 48 h
Influenza A virus [3] = type: functional, organism-based; settings: A/WSN/33, MDCK, 48 h; remark: listed apart in the source
Influenza A virus [4] = type: functional, organism-based, A/WSN/33; settings: mdck
Influenza A virus [5] = type: functional, organism-based, A/WSN/33; settings: mdck; remark: listed apart in the source
Influenza A virus [6] = type: functional, organism-based, A/WSN/33; settings: mdck; remark: listed apart in the source
Influenza A virus [7] = type: functional, organism-based, A/WSN/33; settings: mdck; remark: listed apart in the source
Influenza A virus [8] = type: functional, organism-based, A/WSN/33; settings: mdck; remark: listed apart in the source
Influenza A virus [9] = type: functional, organism-based, A/WSN/33; settings: mdck; remark: listed apart in the source
Influenza A virus [10] = type: functional, organism-based; settings: A/HK/68 (H3N2), MDCK
Influenza A virus [11] = type: functional, organism-based, A/WSN/33 (H1N1); settings: mdck

Work on `CC1(C)[C@@H]2CC[C@@]1(C)[C@@H](CN)C2` [listing 1 of 2 here] yielded an IC50 (Influenza A virus [1]; mdck) of 0.49 µM.
With `COc1ccc(CNc2ccc(C34CC5CC(CC(C5)C3)C4)cc2)c(O)c1` the EC50 (Influenza A virus [2]) was 0.66 µM, the EC50 (Influenza A virus [3]) was 8.04 µM and the EC50 (Influenza A virus [4]) was 21.6 µM. It also gave an EC50 (Influenza A virus [5]) of 48 µM, an EC50 (Influenza A virus [6]) of 55 µM and an EC50 (Influenza A virus [7]) of 22.5 µM. The EC50 (Influenza A virus [8]) was 0.66 µM and the EC50 (Influenza A virus [9]) was 17.4 µM.
`COc1ccc(CNC(C)(C)C23CC4CC(CC(C4)C2)C3)c(O)c1` showed an EC50 (Influenza A virus [2]) of 0.13 µM, an EC50 (Influenza A virus [3]) of 20.9 µM and an EC50 (Influenza A virus [4]) of 1.8 µM. The EC50 (Influenza A virus [5]) was 19.2 µM, the EC50 (Influenza A virus [7]) was 43.9 µM and the EC50 (Influenza A virus [8]) was 0.09 µM. For the same molecule, the EC50 (Influenza A virus [9]) was 19.9 µM.
In the case of `NC12CC3CC(CC(C3)C1)C2` [AMANTADINE], the IC50 (Influenza A virus [1]; Influenza A virus, MDCK) is reported as 0.5 µM.
`Cc1cc(/C(=N\O)[C@@H]2C[C@@H]3C[C@H](C2C)C3(C)C)sc1Cl` (stereo not given in full) was tested, and the EC50 (Influenza A virus [10]) was 3.29 µM and the EC50 (Influenza A virus [11]) was 2.45 µM.
In the case of `COc1ccc(CNC23CC4C5CC6CC4C(C2)C(C6)C5C3)c(O)c1`, the EC50 (Influenza A virus [2]) is reported as 0.29 µM, the EC50 (Influenza A virus [3]) is reported as 22 µM and the EC50 (Influenza A virus [4]) is reported as 17.3 µM. The EC50 (Influenza A virus [5]) was 55.8 µM, the EC50 (Influenza A virus [6]) was 47.5 µM and the EC50 (Influenza A virus [7]) was 38.4 µM. It also gave an EC50 (Influenza A virus [8]) of 0.29 µM and an EC50 (Influenza A virus [9]) of 21.2 µM.
For `CC(N)[C@H]1C[C@H]2CC[C@]1(C)C2(C)C` (stereo not given in full), the IC50 (Influenza A virus [1]; Influenza A virus, MDCK) was 0.1 µM.
For `Cc1ccc(/C(=N\O)[C@@H]2C[C@@H]3C[C@H](C2C)C3(C)C)s1` (stereo not given in full), the EC50 (Influenza A virus [10]) was 29.1 µM and the EC50 (Influenza A virus [11]) was 11.9 µM.
With `Cc1csc(/C(=N\O)[C@@H]2C[C@@H]3C[C@H](C2C)C3(C)C)c1` (stereo not given in full) the EC50 (Influenza A virus [10]) was 10.8 µM and the EC50 (Influenza A virus [11]) was 14.8 µM.
In the case of `COc1ccc(CNC23CC4CC(CC(C4)C2)C3)c(O)c1`, the EC50 (Influenza A virus [3]) is reported as 8.74 µM and the EC50 (Influenza A virus [8]) is reported as 1.13 µM.
Work on `CC1[C@H]2C[C@@H](C[C@H]1/C(=N/O)c1cc(Cl)c(Cl)s1)C2(C)C` (stereo not given in full) yielded an EC50 (Influenza A virus [10]) of 9.44 µM and an EC50 (Influenza A virus [11]) of 10.2 µM.
Molecule `Cc1cc(/C(=N\O)[C@@H]2C[C@@H]3C[C@H](C2C)C3(C)C)sc1C` (stereo not given in full) has an EC50 (Influenza A virus [10]) of 4.84 µM and an EC50 (Influenza A virus [11]) of 30.2 µM.
With `C[C@H]1[C@H](N)C[C@@H]2C[C@H]1C2(C)C` the IC50 (Influenza A virus [1]; Influenza A virus, MDCK) was 0.12 µM.
In the case of `Cc1cc(/C(=N\O)[C@@H]2C[C@@H]3C[C@H](C2C)C3(C)C)sc1Br` (stereo not given in full), the EC50 (Influenza A virus [10]) is reported as 7.11 µM and the EC50 (Influenza A virus [11]) is reported as 5.97 µM.
`COc1ccc(CNC23CC4C5CC6C7CC8CC6C(C5C2)C(C8)(C3)C74)c(O)c1` showed an EC50 (Influenza A virus [8]) of 8.1 µM.
In the case of `CC1[C@H]2C[C@@H](C[C@H]1/C(=N/O)c1cccs1)C2(C)C` (stereo not given in full), the EC50 (Influenza A virus [10]) is reported as 12.4 µM and the EC50 (Influenza A virus [11]) is reported as 11.8 µM.
Molecule `CC1(C)[C@@H]2CC[C@@]1(C)[C@@H](CN)C2` [listing 2 of 2 here] has an IC50 (Influenza A virus [1]; Influenza A virus, MDCK) of 0.29 µM.
